Results published in US5464826A, “Method of treating tumors in mammals with 2',2'-difluoronucleosides” (Eli Lilly and Company, priority 1994, dated 1995).

Columns and labels:
[1] = tested on: L1210V lymphocytic leukemia; test: L1210V Lymphocytic Leukemia Tumor System; type: in vivo, mice; conditions: for Indefinite Survivors: 45 day survivors; for Toxic Deaths: deaths/mice in group
Protocol: The study testing the efficacy of these compounds against L1210V leukemia was initiated by an IP inoculation of 1×10^6 cells. Treatment was begun 24 hours after inoculation. The response to therapy was determined by comparing the mean life span of the ten treated animals to that of the ten control animals; prolongation of life in the treated animals beyond that of controls is expressed as a percentage. In the Table, column 1 gives the example number of the compound tested; column 2, the experiment number; column 3, the dose level of the compound in mg/kg; column 4, the route of administration; column 5, the dosage schedule, that is, the days on which the compound was administered to the mice; column 6, the average increase in life span of the treated mice as compared to the control mice; column 7, the toxic deaths over the number of mice in each group; and column 8, the indefinite survivors, that is, the number of 45 day survivors in each group.

[2] = tested on: X5563 plasma cell myeloma; test: X5563 plasma cell myeloma tumor model; type: in vivo, mice (C3H); conditions: IP, Days 1,5,9
Excerpt: X5563 Myeloma--the tumor is maintained in C3H mice.
The tumor was removed from passage animals and minced into 1 to 3 mm square fragments using sterile techniques. Tumor pieces were checked for sterility using both Antibiotic Medium 1 and Brain Heart Infusion (Difco; Detroit, Mich.). Recipient mice were shaved and tumor pieces were implanted subcutaneously in the axillary region by trocar. Drug therapy on the appropriate schedule was initiated on the day after tumor implant. The compound was dissolved in saline for all experiments. All animals were weighed at the beginning and end of drug treatment. Food and water were provided ad libitum. On days 10 to 12, two dimensional measurements (width and length) of all tumors were taken using vernier calipers. Tumor weights were calculated from these measurements using the following formula:
Tumor Weight (mg)=Tumor Length (mm)×Tumor Width (mm)^2 /2
For all data, the tumor weight was rounded to the nearest tenth of a gram for analysis. No group is included in the analysis for therapeutic activity in which deaths attributable to drug toxicity exceeded 30 percent of the treated group.
In Table 3 which follows, column 1 gives the example number of the compound tested; column 2 provides the tumor system; column 3, the dose level; column 4, the route administered; column 5, the dosage schedule; column 6, the percent inhibition of the tumor; and column 7, the toxic deaths observed prior to completion of the study.

[3] = Experiment 1, 1.25 mg/kg, IP, Days 1,5,9
[4] = Experiment 1, 2.5 mg/kg, IP, Days 1,5,9
[5] = Experiment 1, 5.0 mg/kg, IP, Days 1,5,9
[6] = Experiment 1, 10.0 mg/kg, IP, Days 1,5,9
[7] = Experiment 1, 20.0 mg/kg, IP, Days 1,5,9
[8] = Experiment 2, 0.5 mg/kg, IP, Daily for 10 Days
[9] = Experiment 2, 1.0 mg/kg, IP, Daily for 10 Days
[10] = Experiment 2, 2.0 mg/kg, IP, Daily for 10 Days
[11] = Experiment 3, 25.0 mg/kg, IP, Day 1 only
[12] = Experiment 3, 50.0 mg/kg, IP, Day 1 only
[13] = Experiment 3, 100.0 mg/kg, IP, Day 1 only
[14] = Experiment 3, 200.0 mg/kg, IP, Day 1 only
[15] = Experiment 4, 0.5 mg/kg, PO, Daily for 10 days
[16] = Experiment 4, 1.0 mg/kg, PO, Daily for 10 days
[17] = Experiment 4, 2.0 mg/kg, PO, Daily for 10 days
[18] = Experiment 4, 4.0 mg/kg, PO, Daily for 10 days
[19] = Experiment 5, 0.5 mg/kg, IP, Daily for 9 days
[20] = Experiment 5, 1.0 mg/kg, IP, Daily for 9 days
[21] = Experiment 5, 2.0 mg/kg, IP, Daily for 9 days
[22] = Experiment 5, 4.0 mg/kg, IP, Daily for 9 days

Nc1ccn(C2O[C@H](CO)[C@@H](O)C2(F)F)c(=O)n1 (stereo partly shown) [Example 1, 1-(4-Amino-2-oxo-1H-pyrimidin-1-yl)-2-desoxy-2,2-difluororibose]
Percent Increase Life Span [1, 3]: 50%
Indefinite Survivors [1, 3]: 0
Toxic Deaths [1, 3]: 0/10
Percent Increase Life Span [1, 4]: 60%
Indefinite Survivors [1, 4]: 0
Toxic Deaths [1, 4]: 0/10
Percent Increase Life Span [1, 5]: 66%
Indefinite Survivors [1, 5]: 0
Toxic Deaths [1, 5]: 0/10
Percent Increase Life Span [1, 6]: 66%
Indefinite Survivors [1, 6]: 0
Toxic Deaths [1, 6]: 1/10
Percent Increase Life Span [1, 7]: 60%
Indefinite Survivors [1, 7]: 0
Toxic Deaths [1, 7]: 0/10
Percent Increase Life Span [1, 8]: 13%
Indefinite Survivors [1, 8]: 0
Toxic Deaths [1, 8]: 0/10
Percent Increase Life Span [1, 9]: 0%
Indefinite Survivors [1, 9]: 0
Toxic Deaths [1, 9]: 0/10
Percent Increase Life Span [1, 10]: 0%
Indefinite Survivors [1, 10]: 0
Toxic Deaths [1, 10]: 0/10
Percent Increase Life Span [1, 11]: 23%
Indefinite Survivors [1, 11]: 0
Toxic Deaths [1, 11]: 0/10
Percent Increase Life Span [1, 12]: 30%
Indefinite Survivors [1, 12]: 0
Toxic Deaths [1, 12]: 0/10
Percent Increase Life Span [1, 13]: 26%
Indefinite Survivors [1, 13]: 0
Toxic Deaths [1, 13]: 0/10
Percent Increase Life Span [1, 14]: 34%
Indefinite Survivors [1, 14]: 0
Toxic Deaths [1, 14]: 0/10
Percent Increase Life Span [1, 15]: 8%
Indefinite Survivors [1, 15]: 0
Toxic Deaths [1, 15]: 0/10
Percent Increase Life Span [1, 16]: 15%
Indefinite Survivors [1, 16]: 0
Toxic Deaths [1, 16]: 0/10
Percent Increase Life Span [1, 17]: 18%
Indefinite Survivors [1, 17]: 0
Toxic Deaths [1, 17]: 1/10
Percent Increase Life Span [1, 18]: 2%
Indefinite Survivors [1, 18]: 0
Toxic Deaths [1, 18]: 4/10
Percent Increase Life Span [1, 19]: 74%
Indefinite Survivors [1, 19]: 0
Toxic Deaths [1, 19]: 0/10
Percent Increase Life Span [1, 20]: 104%
Indefinite Survivors [1, 20]: 0
Toxic Deaths [1, 20]: 0/10
Percent Increase Life Span [1, 21]: 136%
Indefinite Survivors [1, 21]: 0
Toxic Deaths [1, 21]: 0/10
Percent Increase Life Span [1, 22]: 44%
Indefinite Survivors [1, 22]: 0
Toxic Deaths [1, 22]: 0/10
Percent Inhibition of Tumor ([2]; 1.25 mg/kg): 11%
Toxic Deaths ([2]; 1.25 mg/kg): 1/10
Percent Inhibition of Tumor ([2]; 2.5 mg/kg): 52%
Toxic Deaths ([2]; 2.5 mg/kg): 1/10
Percent Inhibition of Tumor ([2]; 5.0 mg/kg): 89%
Toxic Deaths ([2]; 5.0 mg/kg): 0/10
Percent Inhibition of Tumor ([2]; 10.0 mg/kg): 98%
Toxic Deaths ([2]; 10.0 mg/kg): 0/10
Percent Inhibition of Tumor ([2]; 20.0 mg/kg): 100%
Toxic Deaths ([2]; 20.0 mg/kg): 0/10
